Patent US5189169A (priority 1991, dated 1993)

Key:
Conditions in all cases: 2.24 kg/ha, 2-3 weeks after treatment
[1] = system: three broadleaf weeds: wild mustard, redroot pigweed and curly dock; assay: Pre-emergence herbicidal activity, broadleaf weeds (Table III); type: in vivo, Brassica kaber, Amaranthus retroflexus, Rumex crispus
Experimental: (§1) The herbicidal effect was observed by comparing the extent of weed control in test flats treated with the compounds against that occurring in similar non-treated control flats. All were applied at 3.57 lb/A (4 kg/ha) to pre-emergence and post-emergence screening flats. An 80 gal/A (748.3 1/ha) spray volume was utilized. Post-emergence flats were seeded 12 days prior to treatment. Pre-emergence flats were seeded one day prior to treatment. Overhead watering of pre-emergence flats and soil surface watering of post-emergence flats, so as to avoid wetting the foliage, were carried out for the duration of the test.
(§2) Weed seeds were planted in a flat at a seed depth of 0.5 inch (1.3 cm). Soil for flats was prepared using loam soil fortified with 17-17-17 fertilizer (N-P2 O5 -K2 O on a weight basis) and Captan 80W fungicide. The test weeds were as follows:
(§3) The spray solutions were prepared by dissolving 240 mg of test compound in 20 ml of acetone containing 1% polyoxyethylene sorbitan monolaurate emulsifier, then adding 20 ml of water to the resulting solution. The spray solutions were applied using a linear spray table. Pre-emergence flats are raised to the level of the post-emergence foliage canopy by setting the flats on a wooden block.
(§4) The degree of weed control was visually assessed and recorded as percentage control compared to the growth of the same species in an untreated check flat of the same age. The rating scale ranges from 0 to 100%, where 0 equals no effect with plant growth equal to the untreated control, and 100 equals complete kill.
(§5) Compounds 68 to 145 in Table I were tested generally similarly to Compounds No. 1 to 67 with the following differences: The rate of application was 2 lb/acre (2.24 kg/ha), no 6-day evaluations were made, and the weeds were:
(§6) Three broadleaf weeds: wild mustard, redroot pigweed (Amaranthus retroflexus) and curly dock (Rumex crispus).
(§7) Ratings were taken 2-3 weeks after treatment.

[2] = system: four grassy weeds: wild oat, watergrass, green foxtail and crabgrass; assay: Pre-emergence herbicidal activity, grassy weeds (Table III); type: in vivo
Experimental: as §1, §2, §3, §4, §5
(§8) Four grassy weeds: wild oat, watergrass, green foxtail and crabgrass (Digitaria sanguinalis);
as §7

[3] = system: four grassy weeds: wild oat, watergrass, green foxtail and crabgrass; assay: Post-emergence herbicidal activity, grassy weeds (Table III); type: in vivo
Experimental: as §1, §2, §3, §4, §5, §8, §7

[4] = system: three broadleaf weeds: wild mustard, redroot pigweed and curly dock; assay: Post-emergence herbicidal activity, broadleaf weeds (Table III); type: in vivo, Brassica kaber, Amaranthus retroflexus, Rumex crispus
Experimental: as §1, §2, §3, §4, §5, §6, §7

| Compound | % Control, Pre-Emergence, BL Avg. [1] [%] | % Control, Pre-Emergence, GR Avg. [2] [%] | % Control, Post-Emergence, GR Avg. [3] [%] | % Control, Post-Emergence, BL Avg. [4] [%] |
| --- | --- | --- | --- | --- |
| CCCN(CCC)P(=O)(Sc1ccccc1)N(CCC)CCC [Compound 78] | 0 | 0 | 50 | 98 |
| CCCCN(CCCC)P(=O)(SC(C)C)N(C)C (stereo not shown) [Compound 109] | 20 | 23 | 85 | 98 |
| CCCCN(CCCC)P(=O)(SCC)N(CCCC)CCCC [Compound 82] | 0 | 0 | 75 | 99 |
| CCCN(CCC)P(=O)(SCC)N1CC(CC)CCC1C (stereo not shown) [Compound 96] | 10 | 0 | 65 | 67 |
| CCCCCCSP(=O)(N(CC)CCCC)N(CCC)CCC (stereo not shown) [Compound 135] | 10 | 0 | 54 | 96 |
| CCCCN(CCCC)P(=O)(SC(C)(C)C)N(CCC)CCC (stereo not shown) [Compound 128] | 0 | 0 | 38 | 80 |
| CCCCSP(=O)(N(CC)CCCC)N(CCC)CCC (stereo not shown) [Compound 90] | 7 | 0 | 86 | 100 |
| CCCCN(CCCC)P(=O)(SCC)N(CCC)CCC (stereo not shown) [Compound 123] | 0 | 0 | 65 | 89 |
| C=CCN(CC=C)P(=O)(SCCC)N(CCC)CCC (stereo not shown) [Compound 76] | 0 | 0 | 61 | 99 |
| CCCN(CCC)P(=O)(SCc1ccccc1)N(CCC)CCC [Compound 95] | 13 | 5 | 55 | 80 |
| CCCCN(CCCC)P(=O)(SC(C)C)N(CCC)CCC (stereo not shown) [Compound 125] | 0 | 0 | 59 | 70 |
| C=CCSP(=O)(N(CCC)CCC)N(CCC)CCC [Compound 99] | 37 | 22 | 58 | 99 |
| CCCN(CCC)P(=O)(SC(C)CC)N1CC(CC)CCC1C (stereo not shown) [Compound 98] | 33 | 0 | 61 | 90 |
| CCCCN(CCCC)P(=O)(SC1CCCCC1)N(C)C (stereo not shown) [Compound 117] | 0 | 0 | 50 | 77 |
| CCCN(CCC)P(=O)(SCC)N(CCC)CCC [Compound 70] | 10 | 5 | 82 | 99 |
| C=CCSP(=O)(N(CCC)CCC)N(CCCC)CCCC (stereo not shown) [Compound 129] | 0 | 0 | 69 | 86 |

| Compound | % Control, Pre-Emergence, BL Avg. [1] [%] | % Control, Pre-Emergence, GR Avg. [2] [%] | % Control, Post-Emergence, GR Avg. [3] [%] | % Control, Post-Emergence, BL Avg. [4] [%] |
| --- | --- | --- | --- | --- |
| CCCCSP(=O)(N(CC)CC)N(CCCC)CCCC (stereo not shown) [Compound 86] | 7 | 5 | 77 | 99 |
| CCCCN(CCCC)P(=O)(SCCC)N(CC)CC (stereo not shown) [Compound 85] | 10 | 12 | 89 | 99 |
| CCCN(CCC)P(=O)(SC(C)C)N(CCC)CCC [Compound 79] | 50 | 35 | 85 | 99 |
| CCCCN(CC)P(=O)(SCCC)N(CCC)CCC (stereo not shown) [Compound 89] | 7 | 0 | 90 | 100 |
| CCCSP(=O)(N(CC)CC)N(CCC)CCC (stereo not shown) [Compound 145] | 30 | 0 | 60 | 87 |
| CCCCN(CCCC)P(=O)(SC(C)CC)N(C)C (stereo not shown) [Compound 111] | 10 | 10 | 72 | 99 |
| CCCCSP(=O)(N(CCCC)CCCC)N(CCCC)CCCC [Compound 83] | 7 | 5 | 82 | 99 |
| CCCN(CCC)P(=O)(SCC)N(C)c1ccccc1 (stereo not shown) [Compound 119] | 0 | 0 | 30 | 67 |
| CCCCN(CC)P(=O)(SCC)N(CCC)CCC (stereo not shown) [Compound 88] | 0 | 0 | 89 | 96 |
| C=CCN(CC=C)P(=O)(SCCCC)N(CCC)CCC (stereo not shown) [Compound 77] | 0 | 0 | 53 | 99 |
| CCCCCCSP(=O)(N(CCC)CCC)N(CCC)CCC [Compound 116] | 10 | 0 | 53 | 96 |
| CCCCN(CCCC)P(=O)(SCCC)N(CCC)CCC (stereo not shown) [Compound 124] | 0 | 0 | 67 | 79 |
| CCCCCSP(=O)(N(CCC)CCC)N(CCC)CCC [Compound 131] | 23 | 0 | 58 | 93 |
| CCCN(CCC)P(=O)(SC1CCCCC1)N(CCC)CCC [Compound 118] | 0 | 0 | 30 | 63 |
| CCCCCSP(=O)(N(CC)CCCC)N(CCC)CCC (stereo not shown) [Compound 133] | 10 | 0 | 59 | 97 |
